Like-named read-outs stand apart in the source and are kept apart here.
Legend:
recombinant PDK-1 = recombinant PDK-1 (Homo sapiens (Human), UniProt O15530); experiment: PDK-1 kinase activity (PDK-1 kinase assay kit, cell-free); format: biochemical
Protocol: PDK-1 kinase activity This in vitro assay was performed using a PDK-1 kinase assay kit (Upstate, Lake Placid, N.Y.) according to the vendor's instructions. This cell-free assay is based on the ability of recombinant PDK-1, in the presence of DMSO vehicle or the test agent, to activate its downstream kinase serum- and glucocorticoid-regulated kinase (SGK.) which, in turn, phosphorylates the Akt/SGK-specific peptide substrate RPRAATF with [γ-^32]-ATP. […] The reported values represent the means of two independent determinations.

[1] = tested on: NCI-H226 (Non-Small Cell Lung Cancer)
Protocol: For a typical screening experiment, cells are inoculated into 96 well microtiter plates in 100 μL at plating densities ranging from 5,000 to 40,000 cells/well depending on the doubling time of individual cell lines. After cell inoculation, the microtiter plates are incubated at 37° C., 5% CO2, 95% air and 100% relative humidity for 24 h prior to addition of experimental drugs.
After 24 h, two plates of each cell line are fixed in situ with TCA, to represent a measurement of the cell population for each cell line at the time of drug addition (Tz). Experimental drugs are solubilized in dimethyl sulfoxide at 400-fold the desired final maximum test concentration and stored frozen prior to use. At the time of drug addition, an aliquot of frozen concentrate is thawed and diluted to twice the desired final maximum test concentration with complete medium containing 50 μg/ml gentamicin. Additional four, 10-fold or ½ log serial dilutions are made to provide a total of five drug concentrations plus control. Aliquots of 100 μl of these different drug dilutions are added to the appropriate microtiter wells already containing 100 μl of medium, resulting in the required final drug concentrations.
Following drug addition, the plates are incubated for an additional 48 h at 37° C., 5% CO2, 95% air, and 100% relative humidity. For adherent cells, the assay is terminated by the addition of cold TCA. Cells are fixed in situ by the gentle addition of 50 μl of cold 50% (w/v) TCA (final concentration, 10% TCA) and incubated for 60 minutes at 4° C. The supernatant is discarded, and the plates are washed five times with tap water and air dried. Sulforhodamine B (SRB) solution (1001) at 0.4% (w/v) in 1% acetic acid is added to each well, and plates are incubated for 10 minutes at room temperature. After staining, unbound dye is removed by washing five times with 1% acetic acid and the plates are air dried. Bound stain is subsequently solubilized with 10 mM trizma base, and the absorbance is read on an automated plate reader at a wavelength of 515 nm. For suspension cells, the methodology is the same except that the assay is terminated by fixing settled cells at the bottom of the wells by gently adding 50 μl of 80% TCA (final concentration, 16% TCA). Using the seven absorbance measurements [time zero, (Tz), control growth, (C), and test growth in the presence of drug at the five concentration levels (Ti)], the percentage growth is calculated at each of the drug concentrations levels. Percentage growth inhibition is calculated as: [(Ti−Tz)/(C−Tz)]×100 for concentrations for which Ti>/=Tz [(Ti−Tz)/Tz]×100 for concentrations for which Ti<Tz
Three dose response parameters are calculated for each experimental agent. […] The drug concentration resulting in total growth inhibition (TGI) is calculated from Ti=Tz. […] Values are calculated for each of these three parameters if the level of activity is reached; however, if the effect is not reached or is exceeded, the value for that parameter is expressed as greater or less than the maximum or minimum concentration tested.

recombinant PDK-1, sequence (O15530 whole entry, looked up): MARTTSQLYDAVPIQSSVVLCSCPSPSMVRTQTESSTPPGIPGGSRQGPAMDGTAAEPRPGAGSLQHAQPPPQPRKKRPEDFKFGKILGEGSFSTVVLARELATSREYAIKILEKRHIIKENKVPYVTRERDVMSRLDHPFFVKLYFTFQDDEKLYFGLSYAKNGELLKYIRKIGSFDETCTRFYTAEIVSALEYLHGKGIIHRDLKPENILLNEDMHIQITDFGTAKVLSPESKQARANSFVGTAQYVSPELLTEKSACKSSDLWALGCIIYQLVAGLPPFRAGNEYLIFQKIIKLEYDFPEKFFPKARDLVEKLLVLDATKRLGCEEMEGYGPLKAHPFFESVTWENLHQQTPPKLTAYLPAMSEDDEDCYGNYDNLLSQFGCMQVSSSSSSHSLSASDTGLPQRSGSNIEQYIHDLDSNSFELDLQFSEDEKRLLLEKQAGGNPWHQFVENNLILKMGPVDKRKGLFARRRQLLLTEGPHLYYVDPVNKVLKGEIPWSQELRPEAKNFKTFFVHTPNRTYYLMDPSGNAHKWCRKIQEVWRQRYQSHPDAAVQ

Row | Compound | increase in PDK-1 inhibition potency over compound 59 (recombinant PDK-1) | TGI [1] | Mean Optical Densities ([1]; Log10 Concentration −4.0) | Mean Optical Densities ([1]; Log10 Concentration −5.0) | Percent Growth ([1]; Log10 Concentration −5.0) [%] | Mean Optical Densities ([1]; Log10 Concentration −6.0) | Percent Growth ([1]; Log10 Concentration −6.0) [%] | Mean Optical Densities ([1]; Log10 Concentration −7.0) | Percent Growth ([1]; Log10 Concentration −7.0) [%] | Mean Optical Densities ([1]; Log10 Concentration −8.0) | Percent Growth ([1]; Log10 Concentration −8.0) [%]
1 | 4-[5-(2-Phenanthrenyl)-3-(trifluoromethyl)-1H-pyrazol-1-yl]-phenyl -guanidine [Compound 71] | five-fold | – | – | – | – | – | – | – | – | – | –
2 | NCC(=O)Nc1ccc(-n2nc(C(F)(F)F)cc2-c2ccc3c(ccc4ccccc43)c2)cc1 [Compound 70, 2-Amino-N-{4-[5-(2-phenanthrenyl)-3-(trifluoromethyl)-1H-pyrazol-1-yl]-phenyl}-acetamide] | – | 3.21E−06 | 0.614 | 0.505 | −58 | 1.429 | 59 | 1.586 | 98 | 1.593 | 100
